Results taken from patent publication US8658638B2, “Mineralocorticoid receptor antagonist and methods of use” (priority 2009, dated 2014).

Biological target: T1, human PR (progesterone receptor) (Homo sapiens, UniProt P06401)
T1 construct: expressed in transfected cells; host or cells: HEK293 (293-PR lysate)
T1 sequence (P06401 1-933): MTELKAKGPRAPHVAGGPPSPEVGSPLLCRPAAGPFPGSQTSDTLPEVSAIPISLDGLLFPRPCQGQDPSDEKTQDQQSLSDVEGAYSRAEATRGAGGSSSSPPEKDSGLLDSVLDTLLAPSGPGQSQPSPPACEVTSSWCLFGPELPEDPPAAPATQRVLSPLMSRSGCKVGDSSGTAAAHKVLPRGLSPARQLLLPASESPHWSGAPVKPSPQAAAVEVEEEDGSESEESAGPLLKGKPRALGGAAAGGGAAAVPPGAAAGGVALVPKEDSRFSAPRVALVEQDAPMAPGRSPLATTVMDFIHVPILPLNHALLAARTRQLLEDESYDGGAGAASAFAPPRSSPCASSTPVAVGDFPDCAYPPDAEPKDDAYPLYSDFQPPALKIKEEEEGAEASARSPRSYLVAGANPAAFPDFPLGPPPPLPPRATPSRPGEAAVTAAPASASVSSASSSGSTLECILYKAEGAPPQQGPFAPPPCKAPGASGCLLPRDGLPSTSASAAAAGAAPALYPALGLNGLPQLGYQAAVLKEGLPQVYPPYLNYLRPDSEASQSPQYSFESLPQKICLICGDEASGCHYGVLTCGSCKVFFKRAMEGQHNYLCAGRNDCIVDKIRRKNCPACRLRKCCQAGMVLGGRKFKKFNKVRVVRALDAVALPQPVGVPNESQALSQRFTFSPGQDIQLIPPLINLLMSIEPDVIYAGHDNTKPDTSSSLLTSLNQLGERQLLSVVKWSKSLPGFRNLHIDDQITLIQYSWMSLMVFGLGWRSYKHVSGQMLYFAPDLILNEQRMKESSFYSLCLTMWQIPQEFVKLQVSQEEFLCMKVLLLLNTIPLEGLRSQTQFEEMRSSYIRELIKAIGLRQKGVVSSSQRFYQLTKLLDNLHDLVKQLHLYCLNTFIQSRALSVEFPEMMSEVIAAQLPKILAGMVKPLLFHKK
Experiment: Steroid nuclear hormone receptor binding assay, PR
Settings: [3H]-methyltrienolone, HEK293 lysate overexpressing human PR
Method: Cell lysates from human embryonic kidney HEK293 cells overexpressing human MR (mineralocorticoid receptor), GR (glucocorticoid receptor), AR (androgen receptor), or PR (progesterone receptor) are used for receptor-ligand competition binding assays to determine Ki values.
Briefly, steroid receptor competition binding assays are run in a buffer containing 20 mM HEPES buffer (pH=7.6), 0.2 mM EDTA, 75 mM NaCl, 1.5 mM MgCl2, 20% glycerol, 20 mM sodium molybdate, 0.2 mM DTT (dithiothreitol), 20 μg/mL aprotinin and 20 μg/mL leupeptin (assay buffer). Typically, steroid receptor binding assays include radio-labeled ligands, such as 0.25 nM [^3H]-aldosterone for MR binding, 0.7 nM [^3H]-dexamethasone for GR binding, 0.36 nM [^3H]-methyltrienolone for AR binding, and 0.29 nM [^3H]-methyltrienolone for PR binding, and either 20 μg 293-MR lysate, 20 μg 293-GR lysate, 22 μg 293-AR lysate, or 40 μg 293-PR lysate per well. Assays are typically run in 96-well format. Competing test compounds are added at various concentrations ranging from about 0.01 nM to 10 μM. Non-specific binding is determined in the presence of 500 nM aldosterone for MR binding, 500 nM dexamethasone for GR binding, or 500 nM methyltrienolone for AR and PR binding. […] After an incubation of 2 hours, plates are read in a Wallac Microbeta counter. […]

O=c1[nH]c2cc(/C=C3\c4ccccc4COc4cc(F)ccc43)ccc2n1[C@@H]1C[C@@H]2COCCN2C1 [Compound (I), 5-((E)-(3-fluorodibenzo[b,e]oxepin-11(6H)-ylidene)methyl)-1-((7R,8aR)-hexahydro-1H-pyrrolo[2,1-c][1,4]oxazin-7-yl)-1H-benzo[d]imidazol-2(3H)-one]
Ki: ~478 nM
